PubChem BioAssay (NCI)
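Method: 48-hour compound exposure of cells in 96-well plates, five concentrations, linear interpolation of endpoints. TGI: total growth inhibition.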

What was measured:
Test in all cases: NCI tumour cell line growth inhibition, 48 h
[1] = test system: COLO 205 colon
[2] = test system: NCI-H460 lung
[3] = test system: DU-145 prostate
[4] = test system: BT-549 breast
[5] = test system: K-562 leukemia
[6] = test system: HT29 colon
[7] = test system: SW-620 colon
[8] = test system: PC-3 prostate
[9] = test system: SK-MEL-5 melanoma
[10] = test system: UACC-62 melanoma
[11] = test system: SNB-75 CNS
[12] = test system: ACHN renal
[13] = test system: NCI/ADR-RES ovarian
[14] = test system: HS 578T breast
[15] = test system: SK-MEL-2 melanoma
[16] = test system: TK-10 renal
[17] = test system: A498 renal
[18] = test system: OVCAR-8 ovarian
[19] = test system: IGROV1 ovarian
[20] = test system: OVCAR-3 ovarian
[21] = test system: 786-0 renal
[22] = test system: HCT-15 colon
[23] = test system: SF-268 CNS
[24] = test system: MALME-3M melanoma
[25] = test system: U251 CNS
[26] = test system: EKVX NSCLC
[27] = test system: LOX IMVI melanoma
[28] = test system: KM12 colon
[29] = test system: NCI-H23 lung
[30] = test system: MCF7 breast
[31] = test system: HCC-2998 colon
[32] = test system: OVCAR-5 ovarian
[33] = test system: CAKI-1 renal
[34] = test system: MDA-MB-435
[35] = test system: SF-295 CNS
[36] = test system: NCI-H226 lung
[37] = test system: RXF 393 renal
[38] = test system: SK-MEL-28 melanoma
[39] = test system: MDA-N
[40] = test system: MDA-MB-231 breast
[41] = test system: UO-31 renal
[42] = test system: MOLT-4 leukemia
[43] = test system: SN12C renal
[44] = test system: HCT-116 colon
[45] = test system: HOP-62 NSCLC
[46] = test system: HL-60(TB) leukemia
[47] = test system: UACC-257 melanoma
[48] = test system: NCI-H522 lung
[49] = test system: SNB-19 CNS
[50] = test system: OVCAR-4 ovarian
[51] = test system: SR leukemia
[52] = test system: SF-539 CNS
[53] = test system: M14 melanoma
[54] = test system: SK-OV-3 ovarian
[55] = test system: A549 NSCLC
[56] = test system: HOP-92 NSCLC
[57] = test system: CCRF-CEM leukemia
[58] = test system: RPMI-8226 leukemia

COc1ccc(Nc2nc3cc(C(F)(F)F)ccc3nc2C(=O)O)cc1
TGI [1]: 46.7 µM
TGI [2]: 53.3 µM
TGI [3]: > 100 µM
TGI [4]: 29.2 µM
TGI [5]: 44.4 µM
TGI [6]: > 100 µM
TGI [7]: 77.6 µM
TGI [8]: 57 µM
TGI [9]: 58.5 µM
TGI [10]: 27.2 µM
TGI [11]: 48.3 µM
TGI [12]: > 100 µM
TGI [13]: 61 µM
TGI [14]: 55.5 µM
TGI [15]: 28 µM
TGI [16]: > 100 µM
TGI [17]: 35 µM
TGI [18]: 46.7 µM
TGI [19]: 90.2 µM
TGI [20]: 34.1 µM
TGI [21]: 43.9 µM
TGI [22]: 39 µM
TGI [23]: 39.5 µM
TGI [24]: 41.4 µM
TGI [25]: 30.4 µM
TGI [26]: 67.5 µM
TGI [27]: 40.8 µM
TGI [28]: 92.4 µM
TGI [29]: 30 µM
TGI [30]: 51.7 µM
TGI [31]: 31.9 µM
TGI [32]: 60.6 µM
TGI [33]: > 100 µM
TGI [34]: 48.1 µM
TGI [35]: 35.7 µM
TGI [36]: 54.1 µM
TGI [37]: 26.8 µM
TGI [38]: > 100 µM
TGI [39]: > 100 µM
TGI [40]: > 100 µM
TGI [41]: 26.5 µM
TGI [42]: 28.6 µM
TGI [43]: > 100 µM
TGI [44]: 33.5 µM
TGI [45]: 30.4 µM
TGI [46]: 83.6 µM
TGI [47]: 50.7 µM
TGI [48]: 30 µM
TGI [49]: 72.2 µM
TGI [50]: > 100 µM
TGI [51]: 34.1 µM

CCCCOC(=O)C(=O)C(CC(CC)C(=O)c1ccccc1)C(=O)C=C(C)C (stereo unspecified)
TGI [1]: > 100 µM
TGI [2]: > 100 µM
TGI [3]: > 100 µM
TGI [4]: > 100 µM
TGI [52]: > 100 µM
TGI [7]: > 100 µM
TGI [8]: > 100 µM
TGI [9]: > 100 µM
TGI [10]: > 100 µM
TGI [11]: > 100 µM
TGI [12]: > 100 µM
TGI [53]: > 100 µM
TGI [13]: > 100 µM
TGI [14]: > 100 µM
TGI [54]: > 100 µM
TGI [15]: > 100 µM
TGI [16]: > 100 µM
TGI [18]: > 100 µM
TGI [19]: > 100 µM
TGI [20]: > 100 µM
TGI [21]: > 100 µM
TGI [55]: > 100 µM
TGI [22]: > 100 µM
TGI [23]: > 100 µM
TGI [25]: > 100 µM
TGI [26]: > 100 µM
TGI [27]: > 100 µM
TGI [28]: > 100 µM
TGI [29]: > 100 µM
TGI [30]: > 100 µM
TGI [31]: > 100 µM
TGI [32]: > 100 µM
TGI [33]: > 100 µM
TGI [34]: > 100 µM
TGI [35]: > 100 µM
TGI [36]: > 100 µM
TGI [37]: > 100 µM
TGI [38]: > 100 µM
TGI [39]: > 100 µM
TGI [40]: > 100 µM
TGI [41]: > 100 µM
TGI [56]: > 100 µM
TGI [42]: > 100 µM
TGI [43]: > 100 µM
TGI [44]: > 100 µM
TGI [45]: > 100 µM
TGI [46]: > 100 µM
TGI [47]: > 100 µM
TGI [48]: > 100 µM
TGI [49]: > 100 µM
TGI [57]: > 100 µM
TGI [50]: > 100 µM

O=c1[nH]c2[nH]c(-c3ccc(Br)cc3)cc2c2ccccc12
TGI [1]: > 100 µM
TGI [2]: > 100 µM
TGI [3]: > 100 µM
TGI [4]: > 100 µM
TGI [52]: > 100 µM
TGI [5]: > 100 µM
TGI [6]: > 100 µM
TGI [7]: > 100 µM
TGI [8]: > 100 µM
TGI [9]: > 100 µM
TGI [10]: > 100 µM
TGI [11]: 37.1 µM
TGI [12]: > 100 µM
TGI [13]: > 100 µM
TGI [14]: 38.5 µM
TGI [15]: > 100 µM
TGI [16]: > 100 µM
TGI [17]: > 100 µM
TGI [18]: > 100 µM
TGI [19]: > 100 µM
TGI [20]: > 100 µM
TGI [21]: > 100 µM
TGI [22]: > 100 µM
TGI [23]: > 100 µM
TGI [24]: > 100 µM
TGI [25]: 92.1 µM
TGI [26]: > 100 µM
TGI [28]: > 100 µM
TGI [29]: > 100 µM
TGI [30]: > 100 µM
TGI [31]: > 100 µM
TGI [32]: > 100 µM
TGI [33]: > 100 µM
TGI [34]: > 100 µM
TGI [35]: > 100 µM
TGI [36]: > 100 µM
TGI [37]: 47.1 µM
TGI [38]: > 100 µM
TGI [39]: > 100 µM
TGI [40]: 44.6 µM
TGI [41]: > 100 µM
TGI [42]: 26.9 µM
TGI [43]: > 100 µM
TGI [44]: > 100 µM
TGI [45]: 53.9 µM
TGI [46]: 28 µM
TGI [47]: > 100 µM
TGI [48]: > 100 µM
TGI [49]: > 100 µM
TGI [50]: > 100 µM
TGI [58]: > 100 µM
TGI [51]: 26.9 µM

c1ccc2c3ccn4ccc5c6ccccc6[nH]c5c4c-3nc2c1
TGI [1]: 1.79 µM
TGI [2]: 0.63 µM
TGI [3]: 2.73 µM
TGI [4]: 3.6 µM
TGI [52]: 2.98 µM
TGI [6]: 1.11 µM
TGI [7]: 0.34 µM
TGI [8]: 2.71 µM
TGI [9]: 2.8 µM
TGI [10]: 3.51 µM
TGI [11]: 2.98 µM
TGI [12]: 2.74 µM
TGI [53]: 3.79 µM
TGI [13]: 4.27 µM
TGI [14]: 5.23 µM
TGI [54]: 3.02 µM
TGI [15]: 3.13 µM
TGI [16]: 4.2 µM
TGI [17]: 3.02 µM
TGI [18]: 0.638 µM
TGI [19]: 2.83 µM
TGI [20]: 0.315 µM
TGI [55]: 1.26 µM
TGI [22]: 1.38 µM
TGI [24]: 3.06 µM
TGI [25]: 0.0992 µM
TGI [26]: 2.72 µM
TGI [27]: 0.316 µM
TGI [28]: 2.3 µM
TGI [29]: 3.61 µM
TGI [30]: 2.65 µM
TGI [31]: 0.879 µM
TGI [32]: 2.92 µM
TGI [33]: 2.93 µM
TGI [34]: 2.89 µM
TGI [35]: 3 µM
TGI [38]: 3.2 µM
TGI [39]: 2.69 µM
TGI [40]: 1.31 µM
TGI [41]: 2.71 µM
TGI [56]: 3.12 µM
TGI [43]: 2.68 µM
TGI [44]: 1.69 µM
TGI [45]: 2.76 µM
TGI [46]: 2.43 µM
TGI [47]: 4.25 µM
TGI [48]: 3.27 µM
TGI [49]: 2.93 µM
TGI [50]: 0.552 µM
TGI [51]: 0.625 µM

C=C1CCc2ccccc2C1=O
TGI [1]: > 100 µM
TGI [2]: > 100 µM
TGI [3]: > 100 µM
TGI [4]: > 100 µM
TGI [52]: > 100 µM
TGI [5]: > 100 µM
TGI [6]: > 100 µM
TGI [7]: > 100 µM
TGI [8]: > 100 µM
TGI [9]: > 100 µM
TGI [10]: > 100 µM
TGI [11]: > 100 µM
TGI [12]: > 100 µM
TGI [53]: > 100 µM
TGI [13]: > 100 µM
TGI [14]: > 100 µM
TGI [54]: > 100 µM
TGI [15]: > 100 µM
TGI [16]: > 100 µM
TGI [17]: > 100 µM
TGI [18]: > 100 µM
TGI [19]: > 100 µM
TGI [20]: > 100 µM
TGI [21]: > 100 µM
TGI [55]: > 100 µM
TGI [22]: > 100 µM
TGI [23]: > 100 µM
TGI [24]: > 100 µM
TGI [25]: > 100 µM
TGI [26]: > 100 µM
TGI [28]: > 100 µM
TGI [29]: > 100 µM
TGI [30]: > 100 µM
TGI [31]: > 100 µM
TGI [32]: > 100 µM
TGI [33]: > 100 µM
TGI [34]: > 100 µM
TGI [35]: > 100 µM
TGI [36]: > 100 µM
TGI [37]: > 100 µM
TGI [39]: > 100 µM
TGI [40]: > 100 µM
TGI [41]: > 100 µM
TGI [56]: > 100 µM
TGI [42]: > 100 µM
TGI [43]: > 100 µM
TGI [44]: > 100 µM
TGI [45]: > 100 µM
TGI [46]: > 100 µM
TGI [47]: > 100 µM
TGI [48]: > 100 µM
TGI [49]: > 100 µM
TGI [57]: > 100 µM
TGI [50]: > 100 µM
TGI [58]: > 100 µM
TGI [51]: 78.9 µM
